Drawing on ChEMBL document CHEMBL5608259 (J Med Chem, 2024), this text covers inhibition for 29 compounds.

For orientation: inhibition means the percentage by which the read-out fell short of the control.

For test [1], the target named is Protein arginine N-methyltransferase 1 (Homo sapiens, UniProt Q99873). Put plainly: Inhibition of human PRMT1 using H4-21peptide as substrate at 10 uM incubated for 10 mins by fluorescence based analysis relative to control.
In test [2] the target is Protein arginine N-methyltransferase 3 (Homo sapiens, UniProt O60678). Put plainly: Inhibition of human PRMT3 using H4-21peptide as substrate at 10 uM incubated for 10 mins by fluorescence based analysis relative to control.
Protein arginine N-methyltransferase 3, sequence (O60678 2-531 limits assumed): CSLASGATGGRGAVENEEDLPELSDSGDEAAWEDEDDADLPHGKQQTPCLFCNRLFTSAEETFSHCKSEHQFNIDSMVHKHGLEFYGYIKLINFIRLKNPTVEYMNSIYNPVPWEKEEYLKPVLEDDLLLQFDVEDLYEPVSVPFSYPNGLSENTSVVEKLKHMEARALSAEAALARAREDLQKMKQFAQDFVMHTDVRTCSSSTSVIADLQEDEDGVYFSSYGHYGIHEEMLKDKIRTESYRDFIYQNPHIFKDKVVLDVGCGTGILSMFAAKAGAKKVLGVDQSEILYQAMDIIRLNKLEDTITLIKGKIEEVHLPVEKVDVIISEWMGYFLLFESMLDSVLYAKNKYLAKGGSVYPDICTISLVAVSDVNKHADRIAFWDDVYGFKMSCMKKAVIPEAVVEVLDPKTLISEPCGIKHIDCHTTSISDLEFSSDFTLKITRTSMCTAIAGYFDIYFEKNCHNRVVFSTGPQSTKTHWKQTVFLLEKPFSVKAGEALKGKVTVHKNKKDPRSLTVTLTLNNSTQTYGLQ
For test [3], the target named is T1, Histone-arginine methyltransferase CARM1 (Homo sapiens) (UniProt Q86X55).
T1 sequence (whole entry): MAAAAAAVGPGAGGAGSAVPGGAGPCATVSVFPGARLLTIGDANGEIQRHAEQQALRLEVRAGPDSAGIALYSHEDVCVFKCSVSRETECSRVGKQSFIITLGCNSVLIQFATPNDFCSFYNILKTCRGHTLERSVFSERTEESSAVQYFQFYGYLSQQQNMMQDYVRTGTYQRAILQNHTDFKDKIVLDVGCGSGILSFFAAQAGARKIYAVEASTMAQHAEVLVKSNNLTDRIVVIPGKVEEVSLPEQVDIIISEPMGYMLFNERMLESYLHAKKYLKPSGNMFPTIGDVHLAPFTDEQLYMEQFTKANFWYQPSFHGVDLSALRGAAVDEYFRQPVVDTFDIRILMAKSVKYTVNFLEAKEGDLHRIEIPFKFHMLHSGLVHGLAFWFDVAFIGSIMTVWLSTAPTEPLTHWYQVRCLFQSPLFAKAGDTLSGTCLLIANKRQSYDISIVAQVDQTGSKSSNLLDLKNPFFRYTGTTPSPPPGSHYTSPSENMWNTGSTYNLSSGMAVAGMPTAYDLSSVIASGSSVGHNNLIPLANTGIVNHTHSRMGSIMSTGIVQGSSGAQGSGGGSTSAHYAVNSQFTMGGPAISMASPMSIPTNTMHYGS
Kind of test: Inhibition of human PRMT4 using histone H3 as substrate and SAM as cofactor at 10 uM by radiometric HotSpot assay relative to control.

Test [4] concerns the target Protein arginine N-methyltransferase 6 (Homo sapiens, UniProt Q96LA8). Put plainly: Inhibition of human PRMT6 using GST-GAR as substrate and SAM as cofactor at 10 uM by radiometric HotSpot assay relative to control.
The target of test [5] is Protein arginine N-methyltransferase 8 (Homo sapiens, UniProt Q9NR22). Kind of test: Inhibition of human PRMT8 using Histone H4 as substrate and SAM as cofactor at 10 uM by radiometric HotSpot assay relative to control.
Protein arginine N-methyltransferase 8, sequence (Q9NR22 2-394 limits assumed): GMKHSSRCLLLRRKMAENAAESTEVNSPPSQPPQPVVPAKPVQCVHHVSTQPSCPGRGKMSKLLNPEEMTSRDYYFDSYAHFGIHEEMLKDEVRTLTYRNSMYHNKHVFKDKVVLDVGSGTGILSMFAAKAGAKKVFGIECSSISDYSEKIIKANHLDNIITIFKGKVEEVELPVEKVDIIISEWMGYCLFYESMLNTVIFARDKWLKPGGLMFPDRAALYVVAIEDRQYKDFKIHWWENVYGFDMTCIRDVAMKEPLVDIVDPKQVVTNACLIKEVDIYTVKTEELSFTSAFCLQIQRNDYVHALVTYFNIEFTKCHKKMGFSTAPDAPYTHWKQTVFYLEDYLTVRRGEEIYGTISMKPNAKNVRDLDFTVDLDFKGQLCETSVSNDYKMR

Calls of active or inactive are those of the source. The calls are words filed in the database; no cut-off is given here.

Protein arginine N-methyltransferase 1, sequence (Q99873 whole entry, looked up): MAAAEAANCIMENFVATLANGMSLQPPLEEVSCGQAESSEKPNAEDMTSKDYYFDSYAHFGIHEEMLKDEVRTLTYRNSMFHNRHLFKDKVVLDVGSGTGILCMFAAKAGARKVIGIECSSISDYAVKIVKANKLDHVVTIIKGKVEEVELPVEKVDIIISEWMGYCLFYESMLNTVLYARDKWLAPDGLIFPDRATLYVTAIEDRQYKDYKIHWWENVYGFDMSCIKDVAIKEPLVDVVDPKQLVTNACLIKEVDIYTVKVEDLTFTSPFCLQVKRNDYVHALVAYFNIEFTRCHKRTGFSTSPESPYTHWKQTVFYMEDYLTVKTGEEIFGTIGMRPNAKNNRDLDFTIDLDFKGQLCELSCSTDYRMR
Protein arginine N-methyltransferase 6, sequence (Q96LA8 whole entry, looked up): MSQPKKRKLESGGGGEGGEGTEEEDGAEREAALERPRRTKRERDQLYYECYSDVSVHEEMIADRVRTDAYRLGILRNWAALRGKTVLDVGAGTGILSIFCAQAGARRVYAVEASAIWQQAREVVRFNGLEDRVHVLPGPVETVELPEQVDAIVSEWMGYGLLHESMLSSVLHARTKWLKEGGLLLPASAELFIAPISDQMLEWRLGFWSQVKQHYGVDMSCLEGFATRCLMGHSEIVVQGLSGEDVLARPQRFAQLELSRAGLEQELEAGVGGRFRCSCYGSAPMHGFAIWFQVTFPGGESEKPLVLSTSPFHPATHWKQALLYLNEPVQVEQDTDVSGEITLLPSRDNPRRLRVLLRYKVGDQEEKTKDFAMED

As for `N=C(NCCCSC[C@H]1O[C@@H](n2cnc3c(NCCCc4ccccc4)ncnc32)[C@H](O)[C@@H]1O)NC1CC1`, the inhibition entry in test [1], in test [3] and in test [4] was “Active” each time. For the same compound, the results for the inhibition in test [2] and in test [5] were under 30% and 70%, respectively.

As for `COc1cc2nc(-c3ccc(Cl)cc3)nc(NCCSC[C@H]3O[C@@H](n4cnc5c(N)ncnc54)[C@H](O)[C@@H]3O)c2cc1OC`, in test [1], the inhibition result is “inactive”. Further, the values for the inhibition in test [2], in test [4] and in test [5] were under 30%, over 70% and under 50%, respectively.

With `N=C(NCCCN)NCCCSC[C@H]1O[C@@H](n2cnc3c(NCCCc4ccccc4)ncnc32)[C@H](O)[C@@H]1O`, the inhibition entry in test [1], in test [3] and in test [4] was “Active” each time. The figures for the inhibition in test [2] and in test [5] were under 30% and 70%, respectively.

On to `Nc1cccc(-c2ccc(CNC(=O)NCCSC[C@H]3O[C@@H](n4cnc5c(N)ncnc54)[C@H](O)[C@@H]3O)cc2)c1`, for which the inhibition in test [1] is under 50%; in test [2], 3%; in test [3], 27%; in test [4] it was 70%; in test [5] it was under 30%.

On to `Nc1ncnc2c1ncn2[C@@H]1O[C@H](CSCCOc2ccc(-c3ccc(Cl)cc3)cc2)[C@@H](O)[C@H]1O`, for which the inhibition entry in test [1] was “inactive”. For the same compound, the inhibition in test [2] was under 30%; in test [4], under 50%; in test [5], under 50%.

`Nc1ncnc2c1ncn2[C@@H]1O[C@H](CSCCOc2ccc(-c3ccncc3)cc2)[C@@H](O)[C@H]1O`: the inhibition result in test [1] is “inactive”. Besides, the inhibition in test [2] is under 30%; in test [4], under 50%; in test [5] it was under 50%.

In the case of `N=C(NCCCSC[C@H]1O[C@@H](n2cnc3c(NCCCc4ccccc4)ncnc32)[C@H](O)[C@@H]1O)NCCCc1ccccc1`, the inhibition result in test [1], in test [3] and in test [4] was “Active” each time. Moreover, the figures for the inhibition in test [2] and in test [5] were under 30% and 70%, respectively.

Regarding `Nc1ncnc2c1ncn2[C@@H]1O[C@H](CSCCNC(=O)NCc2ccc(-c3cccc(O)c3)cc2)[C@@H](O)[C@H]1O`, the inhibition in test [1] is under 50%; in test [2] it was 3%; in test [3], 27%; in test [4], 70%; in test [5], under 30%.

Consider `Nc1ncnc2c1ncn2[C@@H]1O[C@H](CSCCNC(=O)NCc2ccc(-c3ccc(O)cc3)cc2)[C@@H](O)[C@H]1O`, for which the inhibition in test [1] is under 50%; in test [2] it was 3%; in test [3], 27%; in test [4], 70%; in test [5], under 30%.

Regarding `COc1cc2nc(-c3ccc(O)cc3)nc(NCCSC[C@H]3O[C@@H](n4cnc5c(N)ncnc54)[C@H](O)[C@@H]3O)c2cc1OC`, the inhibition entry in test [1] is “inactive”. Besides, the inhibition in test [2] is under 30%; in test [4] it was over 70%; in test [5], under 50%.

For `Nc1ncnc2c1ncn2[C@@H]1O[C@H](CSCCOc2ccc(-c3ccccc3O)cc2)[C@@H](O)[C@H]1O`, in test [1], the inhibition entry was “inactive”. In addition, the figures for the inhibition in test [2], in test [4] and in test [5] were under 30%, under 50% and under 50%, respectively.

With `N=C(NCCCSC[C@H]1O[C@@H](n2cnc3c(NCCCc4ccccc4)ncnc32)[C@H](O)[C@@H]1O)NC1CCCCC1`, the inhibition result in test [1], in test [3] and in test [4] was “Active” each time. For the same compound, the inhibition in test [2] is under 30%; in test [5], 70%.

With `N=C(NCCCSC[C@H]1O[C@@H](n2cnc3c(NCCCc4ccccc4)ncnc32)[C@H](O)[C@@H]1O)NC1CCCC1`, the inhibition result in test [1], in test [3] and in test [4] was “Active” each time. In addition, the inhibition is under 30% in test [2] and 70% in test [5].

For `N=C(NCCCSC[C@H]1O[C@@H](n2cnc3c(NCCCc4ccccc4)ncnc32)[C@H](O)[C@@H]1O)NCC1CCC1`, the inhibition entry in test [1], in test [3] and in test [4] was “Active” in each case. The inhibition in test [2] is under 30%; in test [5], 70%.

Take `N=C(NCCCSC[C@H]1O[C@@H](n2cnc3c(NCCCc4ccccc4)ncnc32)[C@H](O)[C@@H]1O)NCC1CC1`: the inhibition result in test [1], in test [3] and in test [4] was “Active” throughout. The values for the inhibition in test [2] and in test [5] were under 30% and 70%, respectively.

Consider `CCCCNC(=N)NCCCSC[C@H]1O[C@@H](n2cnc3c(NCCCc4ccccc4)ncnc32)[C@H](O)[C@@H]1O`, for which the inhibition entry in test [1], in test [3] and in test [4] was “Active” throughout. Moreover, the inhibition is under 30% in test [2] and 70% in test [5].

For the compound `N=C(NCCCSC[C@H]1O[C@@H](n2cnc3c(NCCCc4ccccc4)ncnc32)[C@H](O)[C@@H]1O)NC1CCC1`, the inhibition result in test [1], in test [3] and in test [4] was “Active” throughout. Besides, the inhibition is under 30% in test [2] and 70% in test [5].

As to `Nc1ncnc2c1ncn2[C@@H]1O[C@H](CSCCOc2ccc(-c3ccc(F)cc3)cc2)[C@@H](O)[C@H]1O`, the inhibition result in test [1] was “inactive”. The inhibition in test [2] was under 30%; in test [4], under 50%; in test [5], under 50%.

Consider `Nc1ncnc2c1ncn2[C@@H]1O[C@H](CSCCOc2ccc(-c3cncnc3)cc2)[C@@H](O)[C@H]1O`, for which the inhibition entry in test [1] was “inactive”. The inhibition in test [2] is under 30%; in test [4], under 50%; in test [5], under 50%.

Consider `Nc1ncnc2c1ncn2[C@@H]1O[C@H](CSCCOc2ccc(-c3ccc(F)c(O)c3)cc2)[C@@H](O)[C@H]1O`, for which the inhibition entry in test [1] is “inactive”. Further, the inhibition in test [2] was under 30%; in test [4], under 50%; in test [5], under 50%.

Take `Nc1ncnc2c1ncn2[C@@H]1O[C@H](CSCCOc2ccc(-c3ccc(O)cc3)cc2)[C@@H](O)[C@H]1O`: the inhibition result in test [1] is “inactive”. The inhibition in test [2] was under 30%; in test [4] it was under 50%; in test [5], under 50%.

With `Nc1ncnc2c1ncn2[C@@H]1O[C@H](CSCCCNCc2cccc(-c3cccc(F)c3)c2)[C@@H](O)[C@H]1O`, the inhibition is under 30% in test [2], over 90% in test [3], 50% in test [4] and over 50% in test [5].

On to `Nc1ncnc2c1ncn2[C@@H]1O[C@H](CSCCNCc2cccc(-c3ccccc3O)c2)[C@@H](O)[C@H]1O`, for which the inhibition is under 30% in test [2], over 90% in test [3], 50% in test [4] and over 50% in test [5].

Consider `Nc1ncnc2c1ncn2[C@@H]1O[C@H](CSCCNCc2cccc(-c3cccc(O)c3)c2)[C@@H](O)[C@H]1O`, for which the inhibition in test [2] is under 30%; in test [3], over 90%; in test [4], 50%; in test [5], over 50%.

For `Nc1ncnc2c1ncn2[C@@H]1O[C@H](CSCCNCc2cccc(-c3cccc(F)c3)c2)[C@@H](O)[C@H]1O`, the inhibition in test [2] is under 30%; in test [3], over 90%; in test [4], 50%; in test [5], over 50%.

In the case of `Nc1ncnc2c1ncn2[C@@H]1O[C@H](CSCCCNCc2cccc(-c3ccc(Cl)cc3)c2)[C@@H](O)[C@H]1O`, the inhibition in test [2] is under 30%; in test [3] it was over 90%; in test [4] it was 50%; in test [5], over 50%.

As for `Nc1cccc(-c2cccc(CNCCSC[C@H]3O[C@@H](n4cnc5c(N)ncnc54)[C@H](O)[C@@H]3O)c2)c1`, the inhibition was under 30% in test [2], over 90% in test [3], 50% in test [4] and over 50% in test [5].

With `Nc1ncnc2c1ncn2[C@@H]1O[C@H](CSCCNCc2cccc(-c3ccc(F)c(O)c3)c2)[C@@H](O)[C@H]1O`, the inhibition in test [2] was under 30%; in test [3], over 90%; in test [4] it was 50%; in test [5], over 50%.

Regarding `Nc1ncnc2c1ncn2[C@@H]1O[C@H](CSCCOc2ccc(-c3cccc(O)c3)cc2)[C@@H](O)[C@H]1O`, in test [1], the inhibition result was “inactive”. In addition, the inhibition in test [2] is under 30%; in test [4] it was under 50%; in test [5], under 50%.
